ChEMBL document CHEMBL1201862, “PubChem BioAssay data set” (2004)
Calls of active or inactive are those of the source.

Experiments:
[1] = HIV-1 Vif–A3G interaction blockers – biochemical, TR-FRET, GST-Vif 1-94, biotin-A3G peptide, dose response retest, primary screen (AID 1117319); format: functional;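 further: TR-FRET signal of purified GST-Vif binding a biotinylated A3G peptide; inhibitors lower the FRET signal by blocking Vif and A3G binding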
[2] = target: Glutathione-S-transferase (Schistosoma japonicum, UniProt Q26513); assay: GST-antibody interaction or FRET quenching – biochemical, TR-FRET, artefact control for Vif-APOBEC3G degradation inhibitor project, dose response (AID 1117362); format: functional
Chain of Glutathione-S-transferase (Q26513 whole entry, the tested form may be a part): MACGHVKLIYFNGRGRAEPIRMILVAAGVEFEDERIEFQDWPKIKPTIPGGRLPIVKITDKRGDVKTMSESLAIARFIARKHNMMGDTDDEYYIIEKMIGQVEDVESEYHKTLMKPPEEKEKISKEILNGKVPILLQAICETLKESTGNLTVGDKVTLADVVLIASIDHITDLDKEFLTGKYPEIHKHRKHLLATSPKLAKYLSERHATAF

[3] = target: T1, Oxysterols receptor LXR-beta (Homo sapiens, UniProt P55055); assay: LXR agonists, Gal4 luciferase reporter, dose response, counter-screen for ssDAF-12 agonist project, cell-based, luminescence, HEK293, S. stercoralis campaign (AID 720737); format: functional; conditions: read-out: IC50 (the source's name)
T1 sequence (P55055 whole entry): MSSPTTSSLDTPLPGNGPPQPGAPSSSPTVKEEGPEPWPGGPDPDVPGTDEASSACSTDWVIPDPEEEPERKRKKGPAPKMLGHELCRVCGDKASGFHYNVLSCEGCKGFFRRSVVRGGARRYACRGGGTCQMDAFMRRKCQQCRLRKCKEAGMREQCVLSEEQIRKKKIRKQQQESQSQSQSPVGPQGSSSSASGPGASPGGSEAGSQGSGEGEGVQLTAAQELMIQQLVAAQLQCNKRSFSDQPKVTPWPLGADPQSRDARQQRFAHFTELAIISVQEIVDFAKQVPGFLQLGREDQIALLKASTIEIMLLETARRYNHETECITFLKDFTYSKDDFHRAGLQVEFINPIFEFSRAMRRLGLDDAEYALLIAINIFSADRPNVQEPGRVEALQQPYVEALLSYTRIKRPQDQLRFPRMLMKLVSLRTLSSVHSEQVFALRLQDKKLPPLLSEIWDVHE

[4] = Luminescence-based cell-based high throughput dose response assay to identify activators of the DAF-12 from the parasite S. stercoralis (ssDAF-12).; format: functional
[5] = antimalarial activity against Dd2 parasites – SYBR Green fluorescence, erythrocytes, dry powder, set 2, dose response (AID 1159574); format: functional, cell-based
[6] = target: RNA-editing ligase 1, mitochondrial (Trypanosoma brucei brucei, UniProt P86926); assay: inhibition of trypanosome RNA editing ligase – biochemical, fluorescence, Trypanosoma brucei, dose response (AID 1117295); format: functional
Chain of RNA-editing ligase 1, mitochondrial (P86926 whole entry): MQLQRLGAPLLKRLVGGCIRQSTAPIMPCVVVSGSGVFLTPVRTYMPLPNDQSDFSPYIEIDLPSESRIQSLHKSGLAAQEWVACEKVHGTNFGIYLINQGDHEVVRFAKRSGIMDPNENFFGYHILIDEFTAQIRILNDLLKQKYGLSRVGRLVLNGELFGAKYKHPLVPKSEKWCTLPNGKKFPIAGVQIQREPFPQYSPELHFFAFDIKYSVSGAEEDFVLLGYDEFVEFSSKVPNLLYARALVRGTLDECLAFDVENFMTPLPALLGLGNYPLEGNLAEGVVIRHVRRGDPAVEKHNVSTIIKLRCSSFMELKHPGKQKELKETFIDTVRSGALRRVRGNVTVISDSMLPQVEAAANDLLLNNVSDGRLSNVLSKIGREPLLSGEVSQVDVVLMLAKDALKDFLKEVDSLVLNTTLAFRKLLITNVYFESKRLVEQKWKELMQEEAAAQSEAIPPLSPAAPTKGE

[7] = Dd2 parasite growth inhibition in erythrocytes – SYBR Green, dry powder samples, set 9, dose response (AID 1159568); format: functional, cell-based
[8] = growth inhibition of yeast DHODH-expressing 3D7 parasites – SYBR Green, dry powder samples, dose response (AID 1159570); format: functional, cell-based;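 further: parasite growth measured after 72 hours of compound exposure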
[9] = growth inhibition of PfATP4-mutant resistant parasites – NITD609-resistant line, SYBR Green, dry powder, dose response (AID 1159571); format: functional, cell-based;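 further: parasites synchronized at ring stage by sorbitol before testing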
[10] = P. falciparum Dd2 growth inhibitors, dose response, SYBR Green, cherry-picked samples (AID 1159567); format: functional, cell-based
[11] = toxicity to human HepG2 hepatoma cells – cell-based, plate reader, dry powder samples, cytotoxicity control, dose response (AID 1159569); format: functional;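 further: inhibitor potency with signal falling toward the positive control level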
[12] = Dd2 malaria parasite growth inhibition potency – SYBR Green, dry powder samples, dose response (AID 1159566); format: functional, cell-based;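 further: potency for growth inhibition with lower SYBR green DNA signal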
[13] = TB: CFU replicating Measured in Microorganism System Using Imaging - 7108-05_Inhibitor_Dose_DryPowder_Activity_Set2.; format: functional
[14] = HCT116 cell viability decrease, GSK3B pretreatment – CellTiter-Glo, IC50, dose response (AID 1117339); format: functional; conditions: HCT-116
[15] = Potency on glucagon-like peptide 1 release, dose-response in NCI-H716 cell line, half maximal inhibitory concentration (AID 1117344); format: functional, cell-based
[16] = target: Heat shock protein HSP 90-alpha (Homo sapiens, UniProt P07900); format: functional, organism-based
[17] = RKO cell viability reduction, dose response, CellTiter-Glo luminescence (AID 1117322); format: functional
[18] = target: T2, Ubiquitin-conjugating enzyme E2 N (Homo sapiens, UniProt P61088); format: functional;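 further: Dose-response confirmation in a TR-FRET assay detecting UBC13-driven polyubiquitin chain formation, inhibition measured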
T2 sequence (P61088 whole entry): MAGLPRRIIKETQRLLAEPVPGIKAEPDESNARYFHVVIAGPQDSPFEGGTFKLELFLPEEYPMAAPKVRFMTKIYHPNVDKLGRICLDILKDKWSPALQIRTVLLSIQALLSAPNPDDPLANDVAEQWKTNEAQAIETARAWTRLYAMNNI

[19] = microbe, parasite or virus in culture; format: functional; conditions: Mycobacterium tuberculosis
[20] = cytotoxicity toward HCT116 cells – cell-based, CellTiter-Glo luminescence, IC50, dose response (AID 1117332); format: functional; conditions: HCT-116
[21] = SNU-C1 cell viability reduction, dose response, CellTiter-Glo luminescence (AID 1117323); format: functional, cell-based
[22] = CellTiter-Glo luminescence survival assay, SW480 colon tumor line, concentration-response curve, half-maximal inhibitory concentration (AID 1117338); format: functional
[23] = Reduced DLD-1 viability, concentration-response, CellTiter-Glo luminescence (AID 1117352); format: functional
[24] = glucagon-like peptide-1 release potency in STC-1, concentration-response, half-maximal inhibitory concentration in the STC-1 line (AID 1117345); format: functional, cell-based
[25] = cytotoxicity toward Colo320 cells – cell-based, CellTiter-Glo luminescence, IC50, dose response (AID 1117334); format: functional; conditions: COLO 320
[26] = cytotoxicity toward HT-29 cells – cell-based, CellTiter-Glo luminescence, IC50, dose response (AID 1117330); format: functional
[27] = rise of 2N DNA cells, HeLa – IC50, dose response (AID 1117349); format: functional, cell-based
[28] = rise of 4N DNA cells, HeLa – IC50, dose response (AID 1117351); format: functional, cell-based

In the case of `CCN1CCN(c2ccc(NC(=O)Cc3ccccc3)cc2)CC1`, the IC50 [1] is reported as > 100 µM (active) and the IC50 [2] is reported as > 100 µM (active).

For `O=C(Cc1ccccc1[N+](=O)[O-])NCCc1ccc(F)cc1`, the EC50 [3] was > 67.6 µM (inactive) and the IC50 [4] was > 67.6 µM (inactive).

With `COc1ccc(S(=O)(=O)N(C)C[C@H]2OCc3ccccc3-c3c(n(C)c4ccccc34)C(=O)N([C@H](C)CO)C[C@H]2C)cc1` the AC50 [5] was 6.22 µM (active).

For `COC(=O)C1=C(C)N(Cc2ccccc2C(F)(F)F)C(NCc2ccc(OC)cc2)=NC1c1cccc(Cl)c1` (stereo not drawn), the IC50 [6] was > 96.6 µM (inactive).

For `Cc1ccc(S(=O)(=O)N(C)C[C@@H]2Oc3cc(C#CC4CCCC4)ccc3S(=O)(=O)N([C@@H](C)CO)C[C@H]2C)cc1`, the AC50 [7] was 1.33 µM (active).

With `COc1ccc(C#Cc2ccc([C@@H]3[C@@H](CO)N4CCCCN(C(=O)Nc5ccccc5F)C[C@H]34)cc2)cc1` the AC50 [8] was 1.37 µM (active), the AC50 [9] was 1.45 µM (active) and the AC50 [10] was 1.89 µM (active). The AC50 [11] was 15.7 µM (active) and the AC50 [12] was 0.8 µM (active).

With `Cc1cccc(C(=O)Nc2nc3ccccc3n2C)c1` the AbsAC90 [13] was 360.23 µM.

For `Clc1ccc(CCC(Cn2ccnc2)Sc2c(Cl)cccc2Cl)cc1` (stereo not drawn) [BUTOCONAZOLE NITRATE], the IC50 [14] was 0.841 µM (active), the IC50 [15] was 16 µM (inactive) and the AC50 [16] was < 0.195 µM (active). The IC50 [17] was 2.3 µM (active), the IC50 [18] was > 20 µM (inactive) and the CC50 [19] was 37.6 µM (active). For the same molecule, the IC50 [20] was 2.06 µM (active), the IC50 [21] was 0.996 µM (active) and the IC50 [22] was 1.69 µM (active). For the same molecule, the IC50 [23] was 1.84 µM (active), the IC50 [24] was 7 µM (inactive) and the IC50 [25] was 0.221 µM (active). The IC50 [26] was 3.01 µM (active).

With `COc1cc(-c2ccc(=O)[nH]n2)ccc1OC(F)F` [ZARDAVERINE] the IC50 [27] was > 10 µM (inactive) and the IC50 [28] was > 10 µM (inactive).
